Tested on: S. aureus Agr QS (AgrC-I/AgrA, agrP3 promoter)
Test: Agr QS fluorescence reporter (agrP3-mkate2) in S. aureus reporter strain
Assay type: cell-based, Staphylococcus aureus
Details: FIG. 3
Description: FIG. 1 illustrates the Agr QS responses of S. aureus to exogenously supplied agonists and antagonists or conjugates of those compounds attached to detectable moieties. To follow the QS status of S. aureus cells, confocal microscopy and an S. aureus reporter strain that produced the fluorescent protein mKate2 in response to exogenous addition of AIP-I was used. The reporter strain was a ΔagrBDCA ΔRNAIII S. aureus mutant harboring agrCA driven by the native agrP2 promoter. […] The plasmid also harbored the Agr-activated agrP3 promoter fused to mkate2. […] This QS response was repressed by the administration of AIP-II. […] However, once the cells detected the exogenous autoinducers, the cells produced mKate2 (red fluorescent protein). […]
Transcription from fluorescence reporter genes was measured in S. aureus strain MK242. […] Using a Synergy 2 plate reader (Biotek, Winooski, Vt.), GFPmut2 and mKate2 levels were measured at 484 nm/528 nm and 588 nm/633 nm, respectively. […]
Imaging was performed using a Nikon Eclipse Ti inverted microscope (Melville, N.Y.) fitted with a Yokogawa CSU X-1 confocal spinning disk scanning unit (Biovision Technologies, Exton, Pa.) and DU-897 X-9351 camera (Andor, Concord, Mass.). […] In the area of an individual cell, both the constitutive GFPmut2 fluorescence and the QS controlled mKate2 fluorescence were measured, subtracted from background signals and summed. […]

AIP-I
mKate2 production in the reporter strain (1 μM compound alone): produced
Specific binding to AgrC receptors, indicated by AIP-II competition: specifically bind to AgrC receptors

From patent US20180346525A1, “DIAGNOSTIC AND THERAPEUTIC QUORUM-SENSING-MANIPULATION MOLECULES THAT ARE TRACKABLE FOR HEALTH-CARE AND INDUSTRIAL SYSTEMS” (The Trustees of Princeton University, priority 2017, published 2018)
